Four compounds from patent US20080310991A1, “Perishable-fruit-bearing cut-limb preservation and distribution method, coating and shipping container therefor” (State of Oregon, acting by and through the State Board of …, priority 2007, published 2008) can be followed below.

The structures appear in SMILES notation.

Type in all cases: in vivo, Malus silvestris L. var. domestica Borkh.
For series [1], the system named is Rome Beauty apples cut-limbs. Kind of series: Ascorbic acid dipping/abscisic acid spraying experiment. The following applies: packaged. Here is the method: (§1) For Rome Beauty apples only, a long term storage experiment and an ascorbic acid dip solution/plant regulator spray experiment were also carried out. For the long-term storage experiment, sixty cut-limbs were harvested, packed in the perforated bags, and stored at 1° C. (nearly the freezing temperature of water). Half of the cut-limbs were treated with 0.0001% by volume (1 ppm) of 1-methylcyclopropene (1-MCP) at 1° C. for twenty-four hours before storage. […] It is possible, however, that MCP treatment would be beneficial in other applications, e.g. with different fruit types, varieties, cultivars, etc.
(§2) The cut-limbs without 1-MCP treatment, after twenty-three and forty-two days of cold storage, were then transferred to room temperature (20° C.), and treated with the following five treatments: bagging, water dipping, bagging plus dipping, bagging […] the control. For the ascorbic acid dipping/abscisic acid spraying experiment, the following four treatments were carried out: ascorbic acid (0.1%) dipping only, coating with an abscission-inducing agent (ABA) such as 0.001% by volume (10 ppm) of abscisic acid added only, 0.1% by volume of ascorbic acid dipping plus coating with ABA added, and the control only. All of the treatments included dipping or coating (or both) and packaging in the perforated polyethylene bags.

For series [2], the system named is Rome Beauty apples cut-limbs. Kind of series: Ascorbic acid treatment, visual quality during storage. Particulars: for Fruit visual quality / Leaves Symptom / Leaves visual quality: Rome Beauty apples, ASA 0.1%, 30 mL, packaged, 20° C. The protocol:
as §2
(§3) Visual quality of leaves was scored with the widely used scale of 9=excellent, fresh; 7=good; 5=fair, slight discoloration; 3=mild discoloration and dryness; and 1=severe discoloration and dryness. Sensory quality of fruit was scored using a scale of 9=pleasant, fresh; 7=good; 5=bland, faint taste; 3=unpleasant taste; and 1=inedible. For both scales, a score of 5 is generally considered in post-harvest studies to be the threshold level of acceptability.

Series [3] has as its system Rome Beauty apple-bearing cut-limbs. Kind of series: Long-term storage experiment with 1-MCP treatment. Particulars: 1 ppm 1-MCP at 1° C. for twenty-four hours. The protocol: as §1
The test system of series [4] is cut-limbs of Golden Delicious apple. Kind of series: Citric acid immerging, visual quality of cut-limbs. The following applies: 0.5% CA, 30 mL, packaged, 20° C.
Description: as §3

The mark [5] stands for this setting: 0.1% ascorbic acid dip solution.
Where [6] appears, read: 10 ppm abscisic acid in the edible coatings.

On to `O=C1O[C@H]([C@@H](O)CO)C(O)=C1O` [ASA, ascorbic acid], for which the “Shelf-life of the cut-limbs” value in series [1] (setting [5]) was “increased”. Further, the Water loss entry in series [1] (setting [5]) is “decreased”. Further, the Fruit visual quality in series [2] (day 1), in series [2] (day 2), in series [2] (day 3), in series [2] (day 4), in series [2] (day 5) and in series [2] (day 6) was 9.0 a in each case. This compound also returned a Fruit visual quality in series [2] (day 7) of 8.5 a. In addition, the “Leaves Symptom” value in series [2] (day 1), in series [2] (day 2), in series [2] (day 3), in series [2] (day 4) and in series [2] (day 5) was “Normal” in each case. The Leaves visual quality in series [2] (day 1) amounted to 8.5 a; in series [2] (day 2) it was 8.6 a; in series [2] (day 3), 8.3 a; in series [2] (day 4), 8.3 a; in series [2] (day 5), 8.4 a; in series [2] (day 6) it was 8.2 a. This compound also registered a Leaves visual quality in series [2] (day 7) of 8.0 a. In series [2] (after seven days stored with water dipping and packaging, vs no-acid), the “Color and luster (FIG. 3C)” value is “visibly better color and luster”.
In the case of `CC1=CC1` [1-MCP, 1-methylcyclopropene], in series [3] (Rome Beauty cut-limbs), the Fruit appearance result is recorded as “normal appearance” and the “Leaves showing brown-black burn symptoms” value was “approximately 68%”. In addition, the “Phytotoxicity to the leaves” value in series [3] (after four days of storage at 1° C.) is “severe phytotoxicity”.
For the compound `CC1=CC(=O)CC(C)(C)[C@@]1(O)/C=C/C(C)=C\C(=O)O` [abscisic acid], in series [1] (setting [6]), the “Shelf-life of the cut-limbs” value is “increased” and the Water loss result was “decreased”.
On to `O=C(O)CC(O)(CC(=O)O)C(=O)O` [CA, citric acid], for which the Fruit visual quality in series [4] (day 1) worked out at 9.0; in series [4] (day 2), 9.0; in series [4] (day 3) it was 9.0; in series [4] (day 4) it was 8.5; in series [4] (day 5) it was 8.5; in series [4] (day 6), 8.5. For the same compound, the Fruit visual quality in series [4] (day 7) is on record as 8.5. Also, the Leaves visual quality was 8.6 in series [4] (day 1); 8.4 in series [4] (day 2); 8.3 in series [4] (day 3); 7.9 in series [4] (day 4); 8.4 in series [4] (day 5); 8.2 in series [4] (day 6). In series [4] (day 7), the Leaves visual quality was 8.0.
